# Source: PMC11097163 (ACS Omega, 2024)
# Experiments:
# P-gp [1] = biological target: P-gp (Homo sapiens, UniProt P08183); experiment: P-gp inhibition, intracellular accumulation of Rh123 in LS180 cells; assay type: cell-based
# [2] = standards: high / moderate / low aqueous solubility; cited from earlier work
# P-gp [3] = experiment: P-gp induction, intracellular accumulation of Rh123 in LS180 cells; assay type: cell-based
# [4] = Organ distribution after IV administration; assay type: in vivo; details: rat, IV 10 mg/kg, 5 min after dosing
# [5] = Intrabrain distribution after IV administration; assay type: in vivo; details: rat, IV 10 mg/kg, 5 min after dosing
# [6] = Plasma protein binding, rapid equilibrium dialysis; assay type: in vitro ADME; details: rat, pH 7.4
# [7] = systemic circulation after oral administration of crocin; cited from earlier work
# pKa, UV-metric method = assay type: physicochemical; details: Britton-Robinson buffer, pH 1.81
# [8] = Pharmacokinetics and oral bioavailability after oral and IV administration; assay type: in vivo; details: rat
# Caco-2 barrier = details: ref 50 (Lautenschlager et al.); cited from earlier work
# CYP2D6 [9] = biological target: CYP2D6 (Homo sapiens, UniProt P10635); experiment: CYP inhibition in HLM, CYP2D6; details: IC50 (μM), dextromethorphan O-demethylation
# Chain of CYP2D6 (Homo sapiens, UniProt P10635) (P10635 whole entry): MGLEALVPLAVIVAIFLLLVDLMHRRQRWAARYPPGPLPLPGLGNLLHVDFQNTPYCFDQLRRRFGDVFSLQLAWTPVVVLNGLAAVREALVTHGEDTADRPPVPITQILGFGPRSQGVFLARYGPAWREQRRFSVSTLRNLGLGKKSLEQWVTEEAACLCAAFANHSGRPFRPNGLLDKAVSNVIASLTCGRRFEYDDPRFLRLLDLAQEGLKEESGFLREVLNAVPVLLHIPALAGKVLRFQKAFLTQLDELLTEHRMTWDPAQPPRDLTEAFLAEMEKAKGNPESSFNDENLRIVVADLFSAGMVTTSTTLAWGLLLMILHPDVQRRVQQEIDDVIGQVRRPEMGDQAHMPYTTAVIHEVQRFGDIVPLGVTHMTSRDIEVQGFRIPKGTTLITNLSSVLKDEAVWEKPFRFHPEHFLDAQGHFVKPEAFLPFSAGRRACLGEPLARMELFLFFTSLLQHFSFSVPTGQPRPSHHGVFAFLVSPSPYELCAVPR
# CYP3A4 = experiment: Western blot of liver CYP3A4 protein expression; assay type: in vivo; details: rat liver, crocetin with galantamine compared to only galantamine
# [10] = Metabolic stability in liver microsomes; assay type: in vitro ADME, human, monkey, dog, rat, mouse; details: MLM, RLM, DLM, MkLM, HLM; 1 mg/mL protein, 5 µM, 30 min
# GI permeability, PAMPA = assay type: in vitro ADME; details: pH 7.4
# CYP2C8 = biological target: T1, CYP2C8 (Homo sapiens, UniProt P10632); experiment: CYP inhibition in HLM, CYP2C8; assay type: biochemical; details: IC50 (μM), amodiaquine N-deethylation
# T1 sequence (P10632 1-490): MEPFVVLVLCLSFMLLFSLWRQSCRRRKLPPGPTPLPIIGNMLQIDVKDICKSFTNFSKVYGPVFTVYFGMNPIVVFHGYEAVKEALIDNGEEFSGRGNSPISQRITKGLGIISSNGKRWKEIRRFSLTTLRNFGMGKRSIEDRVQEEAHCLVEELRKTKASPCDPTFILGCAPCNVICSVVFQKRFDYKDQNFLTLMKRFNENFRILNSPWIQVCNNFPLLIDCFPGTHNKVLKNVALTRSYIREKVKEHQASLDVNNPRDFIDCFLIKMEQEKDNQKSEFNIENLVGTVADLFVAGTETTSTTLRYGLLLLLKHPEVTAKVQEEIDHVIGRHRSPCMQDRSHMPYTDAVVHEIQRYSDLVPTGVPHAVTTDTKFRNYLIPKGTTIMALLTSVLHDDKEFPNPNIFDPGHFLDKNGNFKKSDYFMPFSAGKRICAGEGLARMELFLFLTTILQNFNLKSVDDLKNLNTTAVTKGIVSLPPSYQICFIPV
# [11] = Equilibrium solubility in biorelevant media, shake-flask method; assay type: physicochemical; details: water, 37 °C, thermodynamic from solid
# [12] = RBC partitioning in rat blood and plasma; assay type: in vitro ADME; details: fresh whole blood and reference plasma
# [13] = Chemical stability in SGF and SIF; assay type: physicochemical; details: 37 °C, 10 µM
# [14] = Plasma stability in rat plasma; assay type: in vitro ADME; details: 5 µM, 2 h, 37°C
# CYP2D6 [15] = experiment: Western blot of liver CYP2D6 protein expression; assay type: in vivo; details: rat liver, crocetin with donepezil compared to only donepezil
# [16] = female, Wistar, plasma, other: oral and intravenous
# Chain of P-gp (Homo sapiens, UniProt P08183) (P08183 whole entry): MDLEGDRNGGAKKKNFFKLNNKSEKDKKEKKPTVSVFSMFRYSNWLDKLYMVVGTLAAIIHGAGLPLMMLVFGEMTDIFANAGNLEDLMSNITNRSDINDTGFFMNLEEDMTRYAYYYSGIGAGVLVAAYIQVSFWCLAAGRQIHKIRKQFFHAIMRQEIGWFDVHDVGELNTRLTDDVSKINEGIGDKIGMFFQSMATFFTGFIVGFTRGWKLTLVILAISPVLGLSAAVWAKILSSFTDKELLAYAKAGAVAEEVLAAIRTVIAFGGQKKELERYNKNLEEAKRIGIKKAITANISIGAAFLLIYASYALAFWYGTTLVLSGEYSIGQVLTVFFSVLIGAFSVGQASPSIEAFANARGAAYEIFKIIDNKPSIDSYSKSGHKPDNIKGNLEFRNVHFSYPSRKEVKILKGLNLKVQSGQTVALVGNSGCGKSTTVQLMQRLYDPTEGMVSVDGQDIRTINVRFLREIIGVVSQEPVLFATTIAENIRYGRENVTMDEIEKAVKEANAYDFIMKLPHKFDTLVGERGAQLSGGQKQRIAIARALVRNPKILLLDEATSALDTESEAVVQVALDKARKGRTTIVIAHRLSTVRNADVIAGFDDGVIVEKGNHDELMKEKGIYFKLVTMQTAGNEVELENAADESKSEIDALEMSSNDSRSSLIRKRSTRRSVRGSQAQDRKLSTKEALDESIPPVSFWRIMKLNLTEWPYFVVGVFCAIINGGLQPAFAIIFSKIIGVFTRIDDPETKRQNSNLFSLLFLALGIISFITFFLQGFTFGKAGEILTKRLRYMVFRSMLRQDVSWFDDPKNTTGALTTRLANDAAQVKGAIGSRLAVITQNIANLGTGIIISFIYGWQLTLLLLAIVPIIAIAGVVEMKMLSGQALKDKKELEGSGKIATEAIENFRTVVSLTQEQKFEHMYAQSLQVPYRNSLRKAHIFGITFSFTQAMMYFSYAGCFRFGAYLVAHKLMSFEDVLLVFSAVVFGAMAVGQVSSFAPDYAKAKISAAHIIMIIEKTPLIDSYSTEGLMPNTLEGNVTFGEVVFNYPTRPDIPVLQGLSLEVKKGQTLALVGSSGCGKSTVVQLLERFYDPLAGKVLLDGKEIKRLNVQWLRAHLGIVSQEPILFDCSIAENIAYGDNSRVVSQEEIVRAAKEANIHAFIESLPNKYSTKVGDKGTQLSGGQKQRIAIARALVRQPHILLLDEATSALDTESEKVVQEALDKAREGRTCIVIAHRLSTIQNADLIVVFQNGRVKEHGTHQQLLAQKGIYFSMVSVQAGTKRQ
structure (smiles),measurement,setting,value
"O[C@@H](COc1cccc2ncccc12)CN1CCN([C@@H]2c3ccccc3[C@@H]3[C@H](c4ccccc42)C3(F)F)CC1 [zosuquidar, reference compound]",P-gp inhibition (increase in intracellular accumulation of Rh123),"P-gp [1]; standard, 10 µM",significant inhibition of P-gp
COc1ccc(CCN2CCC(Nc3nc4ccccc4n3Cc3ccc(F)cc3)CC2)cc1 [astemizole],aqueous solubility (category of the standard),[2],< 10 µg/mL
"CO[C@H]1/C=C/O[C@@]2(C)Oc3c(C)c(O)c4c(O)c(c(/C=N/N5CCN(C)CC5)c(O)c4c3C2=O)NC(=O)/C(C)=C\C=C\[C@H](C)[C@H](O)[C@@H](C)[C@@H](O)[C@@H](C)[C@H](OC(C)=O)[C@@H]1C [rifampicin, reference compound]",P-gp induction (decrease in intracellular accumulation of Rh123),"P-gp [3]; standard, 10 µM",significant induction of P-gp
CC(/C=C/C=C(\C)C(=O)O)=C\C=C\C=C(C)\C=C\C=C(/C)C(=O)O [crocetin],order of concentrations in organs,[4],liver > lungs > heart > kidney > spleen > brain
same,order of concentrations in brain parts,[5],cortex > cerebellum > hippocampus
same,"fraction unbound at 4 h, 5 µM",[6],0.03
same,exposure of crocetin relative to crocin,[7],56–81 fold
same,pKa,"pKa, UV-metric method",5.35
same,P-gp induction,"P-gp [3]; Rh123, 25–50 μM",22–24%
same,P-gp inhibitory activity,"P-gp [1]; Rh123, 1 to 50 μM",no marked P-gp inhibitory activity
same,clearance,[8]; [16],≤ 16.7 mL/min/kg
same,half-life,[8]; [16],> 2 h
same,maximum plasma concentration,[8]; oral 20 mg/kg,23 µM
same,Papp,Caco-2 barrier,2.6 ± 0.6 × 10^–5 cm/s
same,IC50,CYP2D6 [9],20.4 µM
same,CYP3A4 protein expression (down-regulation),CYP3A4,0.61 fold
same,remaining intact in liver microsomes,[10],> 83%
same,"Papp at 5 h, 5 μM","GI permeability, PAMPA",3.89 ×10⁻⁶ cm/s
same,IC50,CYP2C8,35.3 µM
same,solubility at 1 h,[11],0.6 µg/mL
same,"blood plasma ratio at 0 min, 1000 nM",[12],0.36 ± 0.01
same,"blood plasma ratio at 60 min, 1000 nM",[12],0.39 ± 0.04
same,intact (chemical stability),"[13]; SGF (pH 1.2), 2 h",72%
same,intact (chemical stability),"[13]; SIF (pH 6.8), 4 h",68%
same,degradation in plasma,[14],< 5%
same,CYP2D6 protein expression (down-regulation),CYP2D6 [15],0.73 fold
CCCC1O[C@@H]2C[C@H]3[C@@H]4CCC5=CC(=O)C=C[C@]5(C)[C@H]4[C@@H](O)C[C@]3(C)[C@]2(C(=O)CO)O1 (stereo partly drawn) [budesonide],aqueous solubility (category of the standard),[2],10 to 100 µg/mL
